Patent publication US20210386738A1, “COMBINATION OF PRMT5 INHIBITORS AND BCL-2 INHIBITORS” (GLAXOSMITHKLINE INTELLECTUAL PROPERTY DEVELOPMENT LIMITED, priority 2018, published 2021)

Tested on: lymphoma cell line DB
Experiment: Serial dilutions: fixed ABT-199 concentration with Compound A titration, six-day cell proliferation
Type: cell-based
Details: for compound A required for gIC100: six days
Experimental: Serial dilutions were performed for the combination to ascertain the change in gIC50, gIC100 and dEC50 when the inhibitors are used together in a PRMT5 inhibitor cell proliferation. A first compound plate was prepared where PRMT5 inhibitor, Compound A, was prepared with a 20-point, two-fold dilution series of compound A from column 1 to 20. A second compound plate was prepared using the BCL-2 inhibitor ABT-199. ABT-199 was titrated in a 16-point 2-fold dilution series from row A to Q. A third plate was then created by added equal volume of 12 ul (ABT-199) from each well in the second plate into the corresponding well in the first plate. The third plate comprised rows from A to Q, each row comprising a fixed concentration of ABT-199. Columns 1-20 comprised varying concentrations of compound A from the 20-point dilution. Plates were incubated for six days at the conditions described above. Lymphoma cell line DB was treated with the solution in each of the wells. Cell growth was measured using CellTiter-Glo (Promega) and luminescence signal was detected with a BioTek Synergy Neo microplate reader. A plate of untreated cells was read at the time of compound/biologic addition to determine the T0 value representing the starting number of cells. Data were fit with a four-parameter equation to generate a concentration response curve for each row using Assay Client software. A comparison was made across each row in the third plate to determine, when keeping a fixed concentration of ABT-199, what concentration of compound A is needed to reach the gIC50, gIC100 or dEC50 respectively and the fold change compared to treating the same cell with compound A alone.
Tables 4a-c show the results of the above serial dilution experiments wherein ‘fold change’ is the difference between the amount of compound A needed to achieve gIC50, gIC100 or dEC50 respectively, compared to the amount of compound A needed to achieve gIC50, gIC100 or dEC50 respectively when compound A is given as a single agent.

With `O=C(NC[C@H](O)CN1CCc2ccccc2C1)c1ccnc(NC2CCC2)c1` [Compound A] the “Fold change over compound A single agent gIC50 (631 nM, most potent of the two agents)” value (with fixed ABT-199 4 nM) was 1.2, the “Fold change over compound A single agent gIC100 (6489 nM, most potent of the two agents)” value (with fixed ABT-199 4 nM) was 0.9 and the “compound A required for gIC100” value (with fixed ABT-199 4 nM) was 6989 nM. For the same compound, the “Fold change over compound A single agent gIC50 (631 nM, most potent of the two agents)” value (with fixed ABT-199 7 nM) was 1.4, the “Fold change over compound A single agent gIC100 (6489 nM, most potent of the two agents)” value (with fixed ABT-199 7 nM) was 1.0 and the “compound A required for gIC100” value (with fixed ABT-199 7 nM) was 6362 nM. The “Fold change over compound A single agent gIC50 (631 nM, most potent of the two agents)” value (with fixed ABT-199 14 nM) was 1.6, the “Fold change over compound A single agent gIC100 (6489 nM, most potent of the two agents)” value (with fixed ABT-199 14 nM) was 0.9 and the “compound A required for gIC100” value (with fixed ABT-199 14 nM) was 6896 nM. The “Fold change over compound A single agent gIC50 (631 nM, most potent of the two agents)” value (with fixed ABT-199 29 nM) was 1.8, the “Fold change over compound A single agent gIC100 (6489 nM, most potent of the two agents)” value (with fixed ABT-199 29 nM) was 1.2 and the “compound A required for gIC100” value (with fixed ABT-199 29 nM) was 5525 nM. The “Fold change over compound A single agent gIC50 (631 nM, most potent of the two agents)” value (with fixed ABT-199 57 nM) was 2.6, the “Fold change over compound A single agent gIC100 (6489 nM, most potent of the two agents)” value (with fixed ABT-199 57 nM) was 2.2 and the “Fold change over top concentration of compound A or ABT-199 inhibitor used in the assay (since no dEC50 observed with single agents)” value (with fixed ABT-199 57 nM) was 1.2. For the same compound, the “compound A required for gIC100” value (with fixed ABT-199 57 nM) was 3004 nM, the “Fold change over compound A single agent gIC50 (631 nM, most potent of the two agents)” value (with fixed ABT-199 115 nM) was 3.0 and the “Fold change over compound A single agent gIC100 (6489 nM, most potent of the two agents)” value (with fixed ABT-199 115 nM) was 2.4. For the same compound, the “Fold change over top concentration of compound A or ABT-199 inhibitor used in the assay (since no dEC50 observed with single agents)” value (with fixed ABT-199 115 nM) was 1.4, the “compound A required for gIC100” value (with fixed ABT-199 115 nM) was 2716 nM and the “Fold change over compound A single agent gIC50 (631 nM, most potent of the two agents)” value (with fixed ABT-199 229 nM) was 5.5. The “Fold change over compound A single agent gIC100 (6489 nM, most potent of the two agents)” value (with fixed ABT-199 229 nM) was 2.5, the “Fold change over top concentration of compound A or ABT-199 inhibitor used in the assay (since no dEC50 observed with single agents)” value (with fixed ABT-199 229 nM) was 1.4 and the “compound A required for gIC100” value (with fixed ABT-199 229 nM) was 2624 nM. The “Fold change over compound A single agent gIC50 (631 nM, most potent of the two agents)” value (with fixed ABT-199 458 nM) was 5.3, the “Fold change over compound A single agent gIC100 (6489 nM, most potent of the two agents)” value (with fixed ABT-199 458 nM) was 3.1 and the “Fold change over top concentration of compound A or ABT-199 inhibitor used in the assay (since no dEC50 observed with single agents)” value (with fixed ABT-199 458 nM) was 1.7. The “compound A required for gIC100” value (with fixed ABT-199 458 nM) was 2118 nM, the “Fold change over compound A single agent gIC50 (631 nM, most potent of the two agents)” value (with fixed ABT-199 916 nM) was 8.1 and the “Fold change over compound A single agent gIC100 (6489 nM, most potent of the two agents)” value (with fixed ABT-199 916 nM) was 3.3. For the same compound, the “Fold change over top concentration of compound A or ABT-199 inhibitor used in the assay (since no dEC50 observed with single agents)” value (with fixed ABT-199 916 nM) was 2.6, the “compound A required for gIC100” value (with fixed ABT-199 916 nM) was 1994 nM and the “Fold change over compound A single agent gIC50 (631 nM, most potent of the two agents)” value (with fixed ABT-199 1833 nM) was 8.5. The “Fold change over compound A single agent gIC100 (6489 nM, most potent of the two agents)” value (with fixed ABT-199 1833 nM) was 4.0, the “Fold change over top concentration of compound A or ABT-199 inhibitor used in the assay (since no dEC50 observed with single agents)” value (with fixed ABT-199 1833 nM) was 3.1 and the “compound A required for gIC100” value (with fixed ABT-199 1833 nM) was 1604 nM. The “Fold change over compound A single agent gIC50 (631 nM, most potent of the two agents)” value (with fixed ABT-199 3666 nM) was 7.8, the “Fold change over compound A single agent gIC100 (6489 nM, most potent of the two agents)” value (with fixed ABT-199 3666 nM) was 3.7 and the “Fold change over top concentration of compound A or ABT-199 inhibitor used in the assay (since no dEC50 observed with single agents)” value (with fixed ABT-199 3666 nM) was 3.3. For the same compound, the “compound A required for gIC100” value (with fixed ABT-199 3666 nM) was 1745 nM, the “Fold change over compound A single agent gIC50 (631 nM, most potent of the two agents)” value (with fixed ABT-199 7331 nM) was 43 and the “Fold change over compound A single agent gIC100 (6489 nM, most potent of the two agents)” value (with fixed ABT-199 7331 nM) was 3.8. For the same compound, the “Fold change over top concentration of compound A or ABT-199 inhibitor used in the assay (since no dEC50 observed with single agents)” value (with fixed ABT-199 7331 nM) was 3.2 and the “compound A required for gIC100” value (with fixed ABT-199 7331 nM) was 1707 nM.
